# Data published in patent publication US20110144079A1, “ANTIMICROBIAL SYSTEM” (priority 2008, published 2011).
# Read-outs that look alike come from different tables or passages of the source.
# Legend:
# B. cenocepacia J2315 = experiment: Broth microdilution MIC/MBC; format: cell-based
# Procedure: (§1) Broth microdilution tests were performed according to NCCLS guidelines. Serial two-fold dilutions of each imidazolium salt (from an original working solution which had been 0.22 μm sterile filtered) in Mueller-Hinton Broth (MHB) (100 μl) were prepared in 96-well micro-titre plates over the range 0.0000625-1% w/v. The inoculum to be tested was prepared by adjusting the turbidity of an actively overnight growing broth culture in MHB to an optical density at 550 nm equivalent to 1×10^8 CFU/ml. The suspension was further diluted to provide a final inoculum density of 2×10^5 CFU/ml in MHB as verified by total viable count. The inoculum to be tested (100 μl, 2×10^5 CFU ml^−1) was added to each well of the microdilution trays which were incubated aerobically for 24 h at 37° C. Positive and negative growth controls were included in every assay (6 replicates). After determining the MICs, minimum bactericidal concentrations (MBCs) were determined by spreading 20 μl of suspension from wells showing no growth onto MHA plates, which were then incubated for 24 h and examined for 99.9% killing.
# C. tropicalis NCTC 7393 = experiment: Broth microdilution MIC/MBC; format: cell-based; details: for MIC: C. tropicalis NCTC 7393, 24 h at 37° C.
# Procedure: as §1
# E-MRSA 15 = experiment: Broth microdilution MIC/MBC; format: cell-based
# Procedure: as §1
# E. coli NCTC 8196 = experiment: Broth microdilution MIC/MBC; format: cell-based; details: for MIC: E. coli NCTC 8196, 24 h at 37° C.
# Procedure: as §1
# K. aerogenes NCTC 7427 = experiment: Broth microdilution MIC/MBC; format: cell-based; details: for MIC: K. aerogenes NCTC 7427, 24 h at 37° C.
# Procedure: as §1
# P. aeruginosa PA01 = experiment: Broth microdilution MIC/MBC; format: cell-based; details: for MIC: P. aeruginosa PA01, 24 h at 37° C., read-out: MIC
# Procedure: as §1
# P. mirabilis NCTC 12442 = experiment: Broth microdilution MIC/MBC; format: cell-based; details: for MIC: P. mirabilis NCTC 12442, 24 h at 37° C.
# Procedure: as §1
# S. aureus ATCC 29213 = experiment: Broth microdilution MIC/MBC; format: cell-based; details: for MIC: S. aureus ATCC 29213, 24 h at 37° C.
# Procedure: as §1
# [1] = system: S. epidermidis ATCC 12228; experiment: Broth microdilution MIC/MBC; format: cell-based; details: for MIC: S. epidermidis ATCC 12228, 24 h at 37° C.
# Procedure: as §1
# [2] = system: S. epidermidis ATCC 35984; experiment: Broth microdilution MIC/MBC; format: cell-based; details: for MIC: S. epidermidis ATCC 35984, 24 h at 37° C.
# Procedure: as §1
# MRSA [3] = experiment: Broth microdilution MIC/MBC; format: cell-based, methicillin-resistant S. aureus; details: for MIC: 24 h at 37° C.
# Procedure: as §1
# B. cereus = experiment: Broth microdilution MIC/MBC; format: cell-based; details: 24 h at 37° C.
# Procedure: as §1
# MRSA [4] = experiment: Zone of inhibition on MRSA-seeded agar culture plates; format: cell-based, methicillin-resistant S. aureus; details: 40 μL of ionic liquid applied to MRSA-seeded agar culture plates
# Excerpt: As used herein, CyMIMCI, refers to 1-alkyl-3-methyl-imidazolium chloride ionic liquids, wherein the alkyl group is a straight chain alkyl group having y carbon atoms.
# [5] = Pseudomonas aeruginosa, PA01, 24 h
Compound,MIC (C. tropicalis NCTC 7393),MIC (E. coli NCTC 8196),MIC (K. aerogenes NCTC 7427),MIC (P. mirabilis NCTC 12442),MIC (S. aureus ATCC 29213),MIC [1],MIC [2],MIC (B. cereus),further results
CCCCCCn1cc[n+](C)c1.[Cl-] [1-alkyl-3-methylimidazolium chlorides 6],>1644 µM,>1644 µM,>1644 µM,>1644 µM,>1644 µM,>1644 µM,>1644 µM,,"MBC (B. cenocepacia J2315; B. cenocepacia J2315, 99.9% killing): >1644 µM; MIC (B. cenocepacia J2315; B. cenocepacia J2315, 24 h at 37° C.): >1644 µM; MBC (C. tropicalis NCTC 7393; C. tropicalis NCTC 7393, 99.9% killing): >1644 µM; MBC (E-MRSA 15; E-MRSA 15, 99.9% killing): >1644 µM; MIC (E-MRSA 15; E-MRSA 15, 24 h at 37° C.): >1644 µM; MBC (E. coli NCTC 8196; E. coli NCTC 8196, 99.9% killing): >1644 µM; MBC (K. aerogenes NCTC 7427; K. aerogenes NCTC 7427, 99.9% killing): >1644 µM; MBC (P. aeruginosa PA01; P. aeruginosa PA01, 99.9% killing): >1644 µM; MIC (P. aeruginosa PA01): >1644 µM; MBC (P. mirabilis NCTC 12442; P. mirabilis NCTC 12442, 99.9% killing): >1644 µM; MBC (S. aureus ATCC 29213; S. aureus ATCC 29213, 99.9% killing): >1644 µM; MBC ([1]; S. epidermidis ATCC 12228, 99.9% killing): >1644 µM; MBC ([2]; S. epidermidis ATCC 35984, 99.9% killing): >1644 µM; MBC (MRSA [3]; 99.9% killing): >1644 µM; MIC (MRSA [3]): >1644 µM"
CCCCCCCC[n+]1ccn(C)c1.[Br][Ag-][Br] [1-alkyl-3-methylimidazolium-AgBr2 8],168.5 µM,136.69 µM,168.5 µM,168.5 µM,136.69 µM,68.35 µM,68.35 µM,168.5 µM,
CCCCCCCCCCn1cc[n+](C)c1.[Br][Ag-][Br] [1-alkyl-3-methylimidazolium-AgBr2 10],79.78 µM,32.68 µM,79.78 µM,79.78 µM,32.68 µM,32.68 µM,32.68 µM,79.78 µM,
CCCCCCCCCCCC[n+]1ccn(C)c1.[Br][Ag-][Br] [1-alkyl-3-methylimidazolium-AgBr2 12],75.85 µM,31.32 µM,34.40 µM,34.40 µM,15.66 µM,31.32 µM,15.66 µM,68.81 µM,
CCCCCCCCCCCCCC[n+]1ccn(C)c1.[Br][Ag-][Br] [1-alkyl-3-methylimidazolium-AgBr2 14],36.1 µM,15.03 µM,18.05 µM,18.05 µM,3.76 µM,15.03 µM,15.03 µM,72.2 µM,
CCCCCCCCCCCCCCCCn1cc[n+](C)c1.[Br][Ag-][Br] [1-alkyl-3-methylimidazolium-AgBr2 16],34.44 µM,28.91 µM,34.44 µM,34.44 µM,7.23 µM,3.61 µM,3.61 µM,68.89 µM,
CCCCCCCCCCCCCCCCCC[n+]1ccn(C)c1.[Br][Ag-][Br] [1-alkyl-3-methylimidazolium-AgBr2 18],65.87 µM,27.83 µM,65.87 µM,65.87 µM,27.83 µM,13.91 µM,13.91 µM,65.87 µM,
CCCCCCCC[n+]1ccn(C)c1.CCCCCCCC[n+]1ccn(C)c1.[Cl][Cu-2]([Cl])([Cl])[Cl] [(1-alkyl-3-methylimidazolium)2CuCl4 8],941.6 µM,470 µM,941.6 µM,941.6 µM,470 µM,470 µM,470 µM,1883.21 µM,
CCCCCCCCCC[n+]1ccn(C)c1.CCCCCCCCCC[n+]1ccn(C)c1.[Cl][Cu-2]([Cl])([Cl])[Cl] [(1-alkyl-3-methylimidazolium)2CuCl4 10],218.3 µM,101.74 µM,218.3 µM,218.3 µM,101.74 µM,101.74 µM,101.74 µM,1746.4 µM,
CCCCCCCCCCCCn1cc[n+](C)c1.CCCCCCCCCCCCn1cc[n+](C)c1.[Cl][Cu-2]([Cl])([Cl])[Cl] [(1-alkyl-3-methylimidazolium)2CuCl4 12],50.88 µM,50.88 µM,50.88 µM,50.88 µM,50.88 µM,50.88 µM,50.88 µM,407 µM,
CCCCCCCCCCCCCCn1cc[n+](C)c1.CCCCCCCCCCCCCCn1cc[n+](C)c1.[Cl][Cu-2]([Cl])([Cl])[Cl] [(1-alkyl-3-methylimidazolium)2CuCl4 14],20.01 µM,40.02 µM,40.02 µM,20.01 µM,40.02 µM,20.01 µM,40.02 µM,80.06 µM,
CCCCCCCCCCCCCCCCn1cc[n+](C)c1.CCCCCCCCCCCCCCCCn1cc[n+](C)c1.[Cl][Cu-2]([Cl])([Cl])[Cl] [(1-alkyl-3-methylimidazolium)2CuCl4 16],44.81 µM,44.81 µM,44.81 µM,44.81 µM,22.41 µM,44.81 µM,22.41 µM,89.63 µM,
CCCCCCCCCCCCCCCCCCn1cc[n+](C)c1.CCCCCCCCCCCCCCCCCCn1cc[n+](C)c1.[Cl][Cu-2]([Cl])([Cl])[Cl] [(1-alkyl-3-methylimidazolium)2CuCl4 18],84.57 µM,131.98 µM,338.29 µM,338.29 µM,131.98 µM,131.98 µM,131.98 µM,169.15 µM,
CCCCCCCCCCCCCCCCn1cc[n+](C)c1.[Cl-] [C16MIMCl],,,,,,,,,Zone Of Inhibition Radius (MRSA [4]): 6 mm
CCCCCCCCCCCCCCCCCCn1cc[n+](C)c1.[Cl-] [C18MIMCl],,,,,,,,,Zone Of Inhibition Radius (MRSA [4]): 10 mm
"CCCCCCCCCCCCCC[n+]1ccn(C)c1C [IL1, 1,2-dimethyl-3-tetradecylimidazolium bromide, reference compound]",,,,,,,,,"MIC (B. cereus; Bacillus cereus): 372 µM; MIC (E. coli NCTC 8196; Escherichia coli, NCTC8196): 46.5 µM; MIC (P. aeruginosa PA01; [5]): 743 µM; MIC (P. mirabilis NCTC 12442; Proteus mirabilis, NCTC12442): 372 µM; MIC ([1]; Staphylococcus epidermidis, ATCC12228): 213 µM; MIC (MRSA [3]; Staphylococcus aureus): 186 µM"
"CCCCCCCCCCCCCC[N+](C)(C)CCO [IL2, N,N-dimethyl-N-(2-hydroxyethyl)-N-tetradecylammonium bromide, reference compound]",,,,,,,,,"MIC (B. cereus; Bacillus cereus): 13.3 µM; MIC (E. coli NCTC 8196; Escherichia coli, NCTC8196): 53.4 µM; MIC (P. aeruginosa PA01; [5]): 427 µM; MIC (P. mirabilis NCTC 12442; Proteus mirabilis, NCTC12442): 427 µM"
